Assay results from patent US20260231939A1, “ARTHROPOD CONTROL COMPOSITIONS” (Firmenich SA, priority 2022, published 2026).

Key:
Aedes aegypti = test: Warm Body assay, mosquito landings on the baited warm body; format: in vivo; details: for repellence efficacy compared with the saturated counterpart: Warm Body assay, paired t-test where given
Protocol: The controlling effect according to the present invention was assessed using an adapted Warm Body assay as defined in Kröber T, Kessler S, Frei J, Bourquin M, Guerin P M. 2010. J Am Mosq Control Assoc. 26:381-386. In this in-vitro assay the number of mosquito landing on a warm body, simulating an attractive host treated with the tested stimuli, was measured in order to assess the repellence effect.
The published protocol has been adapted as the switch from Anopheles gambiae to Ae. aegypti led to a decrease of mosquitoes placed in the tested cage due to the size difference (i.e. 30 mosquitoes instead of 50) and to an increase of lighting since Ae. aegypti is a diurnal mosquitoes (i.e. 150 lux instead of 4 lux).
(§1) On the sandblasted glass Petri dish covering the warm body (28.3 cm^2), 100 μL of the compounds diluted at different concentrations in ethanol was applied. The number of mosquito landing on the warm body was counted for each stimulus. Number of landings on pure ethanol (solvent) control treatment was used to normalize the data and calculate the percentage of repellence.

Anopheles gambiae = test: as above; format: in vivo; details: Warm Body assay, paired t-test, FIG. 4
Protocol: Anopheles gambiae is also a model organism as it is anthropophilic and transmits malaria.
The controlling effect according to the present invention was assessed using an adapted Warm Body assay as defined in Kröber T, Kessler S, Frei J, Bourquin M, Guerin P M. 2010. J Am Mosq Control Assoc. 26:381-386. In this in-vitro assay the number of mosquito landing on a warm body, simulating an attractive host treated with the tested stimuli, was measured in order to assess the repellence effect. […]
as §1

Ae. aegypti = test: Arm-in-cage test on human volunteers; format: in vivo, Aedes aegypti; details: Arm-in-Cage, 20% in ethanol, paired t-test, FIG. 5
Protocol: (§2) The Arm in the box method was adapted from the WHO Guidelines for efficacy testing of mosquito repellents for human skin (WHO/CDS/NTD/WHOPES/2009.4) and/or based on EU biocide testing guidelines (Guidance on the Biocidal Products Regulation. Vol. II Efficacy—Assessment and Evaluation (Parts B+C), v. 4.0. December 2021). The readiness of 200 hungry female mosquitoes Ae. aegypti or 50 An. gambiae to probe is assessed by inserting the untreated arm of human volunteers into the cage (40×40×40 cm) for 30 seconds (negative control) in order to determine probing activity. Then, the product is applied onto the skin of the forearm of the human volunteer (1 mL per 600 cm^2) and after 5 minutes (Ae. aegypti) or 30 minutes (An. gambiae), this arm is inserted into the cage and exposed for 3 minutes. The assay take place in temperature (27±2° C.) and humidity (80±10% RH) regulated room on three different human volunteers.

An. gambiae = test: Arm-in-cage test on human volunteers; format: in vivo, Anopheles gambiae; details: for time during which protection is 100%, i.e. no mosquito landing: 20% in ethanol; for time during which mosquito protection / repellence is >90%: 20% solution in ethanol; for repellent effect: dilution of 5%; for Arm-in-cage repellence, mean of three volunteers: unsaturated δ-lactones at 20%
Protocol: as §2

Ixodes ricinus = test: Warm Plate Assay for ticks; details: for lower dose at which 100% of repellent efficacy is already reached: in vivo

SMILES | repellence efficacy compared with the saturated counterpart (Aedes aegypti) | repellence efficacy compared with the saturated counterpart (Anopheles gambiae) | repellence efficacy compared with saturated 6-pentyloxan-2-one (Ae. aegypti) | time during which protection is 100%, i.e. no mosquito landing (An. gambiae) | time during which mosquito protection / repellence is >90% (An. gambiae) | Arm-in-cage repellence, mean of three volunteers (An. gambiae; 30 min) | Arm-in-cage repellence, mean of three volunteers (An. gambiae; 1 h) | Arm-in-cage repellence, mean of three volunteers (An. gambiae; 2 h) | Arm-in-cage repellence, mean of three volunteers (An. gambiae; 3 h) | Arm-in-cage repellence, mean of three volunteers (An. gambiae; 4 h) | Arm-in-cage repellence, mean of three volunteers (An. gambiae; 5 h) | Arm-in-cage repellence, mean of three volunteers (An. gambiae; 6 h) | Arm-in-cage repellence, mean of three volunteers (An. gambiae; 7 h) | Percentage of repellence of ticks on the warm plate (Ixodes ricinus; 0.40 mg/mL) | Percentage of repellence of ticks on the warm plate (Ixodes ricinus; 2 mg/mL) | Percentage of repellence of ticks on the warm plate (Ixodes ricinus; 10 mg/mL) | lower dose at which 100% of repellent efficacy is already reached (Ixodes ricinus) | also measured
CCC=CCC1CCCC(=O)O1 (centres unmarked) [6-pent-2-enyloxan-2-one] | significantly more efficient | significantly more efficient | more efficient | 4 h | 6 h | 100% ± | 100% ± | 100% ± | 100% ± | 100% ± | 99.2% ± | 92.3% ± | 87.8% ± | 75% | 100% | 100% | 0.089% | repellent effect (An. gambiae; 30 min after application): 100%; repellent effect (An. gambiae; 1 h after application): 99.2%; repellent effect (An. gambiae; 2 h after application): 67.2%; Percentage of repellence of ticks on the warm plate (Ixodes ricinus; 0.08 mg/mL): 33%; Percentage of repellence of ticks on the warm plate (Ixodes ricinus; 0.18 mg/mL): 42%; Percentage of repellence of ticks on the warm plate (Ixodes ricinus; 0.89 mg/mL): 100%
CC=CCCC1CCCC(=O)O1 (centres unmarked) [6-pent-3-enyloxan-2-one] | significantly more efficient | significantly more efficient | more efficient | 3 h | 8 h | 100% ± | 100% ± | 100% ± | 100% ± | 99.0% ± | 98.4% ± | 98.3% ± | 94.9% ± | 83% | 100% | 100% | 0.2% | pest or weed control at 16 µg/mL (Aedes aegypti; Aedes aegypti, δ-lactones, 0.016 mg/mL, read-out: Percentage of repellence of mosquitoes landing on the warm body): 20%; pest or weed control at 400 µg/mL (Aedes aegypti; Aedes aegypti, δ-lactones, 0.4 mg/mL, read-out: Percentage of repellence of mosquitoes landing on the warm body): 98%; pest or weed control at 10000 µg/mL (Aedes aegypti; Aedes aegypti, δ-lactones, 10 mg/mL, read-out: Percentage of repellence of mosquitoes landing on the warm body): 100%; Arm-in-cage repellence, mean of three volunteers (An. gambiae; 8 h): 94.7% ±
